The values below are quoted from earlier work in patent publication US6495521B2, “Combination therapy method for treating chronic hepatitis B” (SciClone Pharmaceuticals, Inc., priority 1993, dated 2002).

The subject of series [1] is hepatitis B virus. The conditions noted are these: patients with chronic active hepatitis B who received the peptide.
For series [2] the following is noted: individuals suffering from chronic active hepatitis B.

For the substance “Ac-Ser-Asp-Ala-Ala-Val-Asp-Thr-Ser-Ser-Glu- Ile-Thr-Thr-Lys-Asp-Leu-Lys-Glu-Lys-Lys-Glu- Val-Val-Glu-Glu-Ala-Glu-Asn-OH (Ac-SDAAVDTSSEITTKDLKEKKEVVEEAEN-OH) [thymosin alpha-1, 28 amino acid peptide originally isolated from calf thymus thymosin fraction 5]”, the “patients who cleared hepatitis B virus DNA from serum and persistently tested negative for serum HBV DNA after treatment was terminated” value in series [1] was 75%. Further, in series [2], the lymphocyte counts entry is recorded as “increases in lymphocyte counts” and the production of gamma-interferon result is listed as “enhance production of gamma-interferon”.
